Test results: US11399543B2, “Substituted 1,2,3,5-tetrahydroimidazo[1,2-a]pyrimidiniumolates for combating animal pests” (BASF SE, priority 2017, dated 2022)
Where two headings read alike, the source gives them in different places.

Columns and labels:
Type in all cases: in vivo
[1] = system: Cowpea Aphid (Aphis craccivora); experiment: Cowpea aphid, sprayed potted cowpea plants; details: after 72 hours, read-out: mortality in comparison with untreated controls
Method: (§1) The active compound is dissolved at the desired concentration in a mixture of 1:1 (vol:vol) distilled water:acetone. Surfactant (Alkamuls® EL 620) is added at a rate of 0.1% (vol/vol). The test solution is prepared at the day of use.
Potted cowpea plants were colonized with approximately 50-100 aphids of various stages by manually transferring a leaf tissue cut from infested plant 24 hours before application. Plants were sprayed after the pest population has been recorded. Treated plants are maintained on light carts at about 28° C. Percent mortality was assessed after 72 hours.

[2] = system: green peach aphid (Myzus persicae); experiment: Green peach aphid B.5.2, systemic, artificial diet under membrane; details: 72 h, read-out: mortality in comparison with untreated controls
Source text: B.5.2. For evaluating control of green peach aphid (Myzus persicae) through systemic means the test unit consisted of 96-well-microtiter plates containing liquid artificial diet under an artificial membrane. The compounds were formulated using a solution containing 75% v/v water and 25% v/v DMSO. Different concentrations of formulated compounds were pipetted into the aphid diet, using a custom built pipetter, at two replications.
After application, 5-8 adult aphids were placed on the artificial membrane inside the microtiter plate wells. The aphids were then allowed to suck on the treated aphid diet and incubated at about 23±1° C. and about 50±5% relative humidity for 3 days. Aphid mortality and fecundity was then visually assessed.

[3] = system: vetch aphid (Megoura viciae); experiment: Vetch aphid, broad bean leaf disks, contact or systemic; details: foliar, 120 h, 5 days, read-out: mortality in comparison with untreated controls
Method: For evaluating control of vetch aphid (Megoura viciae) through contact or systemic means the test unit consisted of 24-well-microtiter plates containing broad bean leaf disks.
The compounds were formulated using a solution containing 75% v/v water and 25% v/v DMSO. Different concentrations of formulated compounds were sprayed onto the leaf disks at 2.5 μl, using a custom built micro atomizer, at two replications.
After application, the leaf disks were air-dried and 5-8 adult aphids placed on the leaf disks inside the microtiter plate wells. The aphids were then allowed to suck on the treated leaf disks and incubated at about 23±1° C. and about 50±5% relative humidity for 5 days. Aphid mortality and fecundity was then visually assessed.

[4] = system: Rice Green Leafhopper (Nephotettix virescens); experiment: Rice green leafhopper, sprayed rice seedlings; details: after 72 hours, adults, read-out: mortality in comparison with untreated controls
Method: (§2) Rice seedlings were cleaned and washed 24 hours before spraying. The active compounds were formulated in 50:50 acetone:water (vol:vol), and 0.1% vol/vol surfactant (EL 620) was added. Potted rice seedlings were sprayed with 5 ml test solution, air dried, placed in cages and inoculated with 10 adults. Treated rice plants were kept at about 28-29° C. and relative humidity of about 50-60%. Percent mortality was recorded after 72 hours.

[5] = system: Rice Brown Plant Hopper (Nilaparvata lugens); experiment: Rice brown plant hopper, sprayed rice seedlings; details: after 72 hours, adults, read-out: mortality in comparison with untreated controls
Method: as §2, with “(vol:vol)” for “(vol:vol),”

[6] = system: tobacco budworm (Heliothis virescens); experiment: Tobacco budworm control, microtiter plate insect diet with eggs; details: 120 h, 5 days, read-out: mortality in comparison with untreated controls (egg and larval mortality)
Method: For evaluating control of tobacco budworm (Heliothis virescens) the test unit consisted of 96-well-microtiter plates containing an insect diet and 15-25 H. virescens eggs.
The compounds were formulated using a solution containing 75% v/v water and 25% v/v DMSO. Different concentrations of formulated compounds were sprayed onto the insect diet at 10 μl, using a custom built micro atomizer, at two replications.
After application, microtiter plates were incubated at about 28±1° C. and about 80±5% relative humidity for 5 days. Egg and larval mortality was then visually assessed.

[7] = system: Diamond Back Moth (Plutella xylostella); experiment: Diamond back moth, cabbage leaf dip; details: foliar, 72 hours after treatment, 3rd instar larvae, read-out: mortality in comparison with untreated controls
Method: as §1
Leaves of cabbage were dipped in test solution and air-dried. Treated leaves were placed in petri dish enlined with moist filter paper and inoculated with ten 3rd instar larvae. Mortality was recorded 72 hours after treatment. Feeding damages were also recorded using a scale of 0-100%.

[8] = system: Southern Armyworm (Spodoptera eridania), 2nd Instar Larvae; experiment: Southern armyworm, sprayed lima bean plants; details: 96 h, 4 days after treatment, read-out: mortality in comparison with untreated controls
Method: (§3) The active compounds were formulated in cyclohexanone as a 10,000 ppm solution supplied in tubes. The tubes were inserted into an automated electrostatic sprayer equipped with an atomizing nozzle and they served as stock solutions for which lower dilutions were made in 50% ace-tone:50% water (v/v). A nonionic surfactant (Kinetic®) was included in the solution at a volume of 0.01% (v/v).
Lima bean plants (variety sieva) were grown 2 plants to a pot and selected for treatment at the 1st true leaf stage. Test solutions were sprayed onto the foliage by an automated electrostatic plant sprayer equipped with an atomizing spray nozzle. The plants were dried in the sprayer fume hood and then removed from the sprayer. Each pot was placed into perforated plastic bags with a zip closure. About 10 to 11 armyworm larvae were placed into the bag and the bags zipped closed. Test plants were maintained in a growth room at about 25° C. and about 20-40% relative humidity for 4 days, avoiding direct exposure to fluorescent light (24 hour photoperiod) to prevent trapping of heat inside the bags. Mortality and reduced feeding were assessed 4 days after treatment, compared to untreated control plants.

[9] = system: Green Peach Aphid (Myzus persicae, Mixed Life Stages); experiment: Green peach aphid B.5.1, sprayed bell pepper plants; details: 120 h, after 5 days, read-out: mortality in comparison with untreated controls
Method: B.5.1. The active compounds were formulated by a Tecan liquid handler in 100% cyclohexanone as a 10,000 ppm solution supplied in tubes. The 10,000 ppm solution was serially diluted in 100% cyclohexanone to make interim solutions. These served as stock solutions for which final dilutions were made by the Tecan in 50% acetone:50% water (v/v) into 10 or 20 ml glass vials. A nonionic surfactant (Kinetic®) was included in the solution at a volume of 0.01% (v/v). The vials were then inserted into an automated electrostatic sprayer equipped with an atomizing nozzle for application to plants/insects.
Bell pepper plants at the first true-leaf stage were infested prior to treatment by placing heavily infested leaves from the main colony on top of the treatment plants. Aphids were allowed to transfer overnight to accomplish an infestation of 30-50 aphids per plant and the host leaves were removed. The infested plants were then sprayed by an automated electrostatic plant sprayer equipped with an atomizing spray nozzle. The plants were dried in the sprayer fume hood, removed, and then maintained in a growth room under fluorescent lighting in a 24-hr photoperiod at about 25° C. and about 20-40% relative humidity. Aphid mortality on the treated plants, relative to mortality on untreated control plants, was determined after 5 days.

[10] = system: Green Soldier Stink Bug (Nezara viridula); experiment: Green soldier stink bug, sprayed soybean pods in Petri dishes; details: 120 h, after 5 days, late 3rd instar, read-out: mortality in comparison with untreated controls
Method: The active compound was dissolved at the desired concentration in a mixture of 1:1 (vol:vol) distilled water:aceteone. Surfactant (Kinetic® HV) is added at a rate of 0.01% (vol/vol). The test solution was prepared at the day of use.
Soybean pods were placed in 90×50 mm glass Petri dishes lined with moist filter paper and inoculated with ten late 3rd instar N. viridula. Using a hand atomizer, an approximately 2 ml solution is sprayed into each Petri dish. Treated cups were kept at about 25-26° C. and relative humidity of about 65-70%. Percent mortality was recorded after 5 days.

[11] = system: Silverleaf Whitefly (Bemisia argentifolii) (Adults); experiment: Silverleaf whitefly adults, sprayed cotton plants; details: at 300, 3 days after treatment
Source text: as §3, with “non-ionic” for “nonionic”
Cotton plants at the cotyledon stage (one plant per pot) were sprayed by an automated electrostatic plant sprayer equipped with an atomizing spray nozzle. The plants were dried in the sprayer fume hood and then removed from the sprayer. Each pot was placed into a plastic cup and about 10 to 12 whitefly adults (approximately 3-5 days old) were introduced. The insects were collected using an aspirator and a nontoxic Tygon® tubing connected to a barrier pipette tip. The tip, containing the collected insects, was then gently inserted into the soil containing the treated plant, allowing insects to crawl out of the tip to reach the foliage for feeding. Cups were covered with a reusable screened lid. Test plants were maintained in a growth room at about 25° C. and about 20-40% relative humidity for 3 days, avoiding direct exposure to fluorescent light (24-hour photoperiod) to prevent trapping of heat inside the cup. Mortality was assessed 3 days after treatment, compared to untreated control plants.

[12] = at 2500 ppm, 3 days, systemic, artificial diet

Compound | mortality at 300 ppm [1] [%] | mortality at 2500 ppm [2, 12] [%] | mortality at 2500 ppm [3] [%] | mortality at 300 ppm [4] [%] | mortality at 300 ppm [5] [%] | mortality at 2500 ppm [6] [%] | mortality at 300 ppm [7] [%] | mortality at 300 ppm [8] [%] | mortality at 300 ppm [9] [%] | mortality at 300 ppm [10] [%] | mortality in comparison with untreated controls [11] | mortality at 2500 ppm [2] [%]
COc1ccc(-c2c([O-])n3c([n+](C)c2=O)N(C)CC3c2cnc(Cl)s2)cc1 (centres unmarked) [Compound C-1, 3-(2-chlorothiazol-5-yl)-6-(4-methoxyphenyl)-1,8-dimethyl-7-oxo-2,3-dihydroimidazo[1,2-a]pyrimidin-8-ium-5-olate] | > 75 | > 75 | – | – | – | – | – | – | – | – | – | –
C[n+]1c([O-])c(-c2ccccc2)c(=O)n2c1N(C(=O)OC(C)(C)C)CC2c1cnc(Cl)s1 (centres unmarked) [Compound C-2] | – | > 75 | – | – | – | – | – | – | – | – | – | –
CN1CC(c2cnc(Cl)s2)n2c1[n+](C)c([O-])c(-c1ccccc1)c2=O (centres unmarked) [Compound C-3] | > 75 | > 75 | > 75 | > 75 | > 75 | > 75 | – | – | – | – | – | –
CN1CC(c2cnc(Cl)s2)n2c1[n+](C)c([O-])c(-c1cc(Cl)cc(Cl)c1)c2=O (centres unmarked) [Compound C-4] | > 75 | > 75 | > 75 | > 75 | > 75 | > 75 | > 75 | > 75 | – | – | – | –
CN1CC(c2cnc(Cl)s2)n2c1[n+](C)c([O-])c(-c1cccc(C(F)(F)F)c1)c2=O (centres unmarked) [Compound C-5] | > 75 | > 75 | > 75 | > 75 | > 75 | > 75 | > 75 | > 75 | > 75 | > 75 | over 75% | –
CN1C[C@@H](c2cnc(Cl)s2)n2c1[n+](C)c([O-])c(-c1cccc(C(F)(F)F)c1)c2=O [Compound C-20] | > 75 | > 75 | > 75 | – | – | – | – | > 75 | – | > 75 | – | –
CN1CC(c2ccc(Cl)nc2)n2c1[n+](C)c([O-])c(-c1cc(Cl)cc(Cl)c1)c2=O (centres unmarked) [Compound C-21] | – | – | – | – | – | – | – | – | – | – | – | > 75
C[n+]1c2n(c([O-])c(-c3ccccc3)c1=O)C(c1cnc(Cl)s1)CN2 (centres unmarked) [Compound C-25] | – | – | – | – | – | – | – | – | – | – | – | > 75
